A short description of data set [1]: Inhibition of calcineurin phosphatase activity in human Jurkat cells by Western blot analysis. The data set is classed as cell-based. A general note: A western blot detects proteins with antibodies after separation by electrophoresis.
The nature of data set [2]: Inhibition of calcineurin phosphatase activity (unknown origin). Also noted: species or system Homo sapiens.
The subject of data set [3] is Vero. As to the kind of experiment: Inhibition of calcineurin in Candida albicans harboring sap9/10delta mutant assessed as change in CNB1 expression measured during invasion of African green monkey Vero cells at 5 uM after 18 hrs by RT-qPCR analysis (reference value: -1.67).
The subject of data set [4] is Vero. Description: Inhibition of calcineurin in Candida albicans harboring sap9/10delta mutant assessed as change in CNB1 expression measured during invasion of African green monkey Vero cells at 5 uM after 8 hrs by RT-qPCR analysis relative to control. (Quantitative PCR measures a nucleic acid by following its amplification.)
The subject of data set [5] is Vero. As to the kind of experiment: Inhibition of calcineurin in Candida albicans harboring sap9delta mutant assessed as change in CNB1 expression measured during invasion of African green monkey Vero cells at 5 uM after 18 hrs by RT-qPCR analysis (reference value: -4.39).
Data set [6] concerns Vero. Description: Inhibition of calcineurin in Candida albicans CAI4 assessed as change in CNB1 expression measured during invasion of African green monkey Vero cells at 5 uM after 18 hrs by RT-qPCR analysis (reference value: -3.66). It counts as cell-based.
Data set [7] has as its system Candida albicans. Description: Antifungal activity against Candida albicans harboring cnb1delta/CNB1 mutant infected in Galleria mellonella larvae assessed as increase in larvae survival at 0.64 ug/mg measured within 5 days. The data set is classed as functional, organism-based. Conditions: dose 0.64 µg/mg, time 5.0 day.
Data set [8] can be described thus: Toxicity in Galleria mellonella infected with Candida albicans harboring cnb1delta/CNB1 assessed as effect on melanization at 0.64 microg/mg pre-treated with compound for 1 hr followed by fungal infection by hematoxylin and eosin staining based analysis. Conditions: dose 0.64 µg/mg.
The test system of data set [9] is Candida albicans. Description: Antifungal activity against Candida albicans CAI4 infected in Galleria mellonella larvae assessed as increase in larvae survival at 0.64 ug/mg measured within 5 days. The data set is classed as functional, organism-based. Particulars: time 5.0 day.
The nature of data set [10]: Toxicity in Galleria mellonella infected with Candida albicans harboring cnb1delta/CNB1 assessed as effect on haemocyte aggregation at 0.64 microg/mg pre-treated with compound for 1 hr followed by fungal infection by hematoxylin and eosin staining based analysis. Conditions: […].
A short description of data set [11]: Toxicity in Galleria mellonella infected with Candida albicans harboring cnb1delta/CNB1 assessed as formation of nodules at 0.64 microg/mg infected with fungi followed by compound treatment for 1 hr by hematoxylin and eosin staining based analysis. Particulars: dose 0.64 µg/mg.
Data set [12] can be described thus: Toxicity in Galleria mellonella infected with Candida albicans CAI4 assessed as haemocyte aggregation in tracheal walls at 0.64 microg/mg infected with fungi followed by compound treatment for 1 hr by hematoxylin and eosin staining based analysis. Particulars: dose 0.64 µg/mg.
The test system of data set [13] is Candida albicans. As to the kind of experiment: Decrease in chitin level in Candida albicans harboring cnb1delta/CNB1 mutant by measuring staining index at 20 uM after 18 hrs by calcofluor White staining based flow cytometry analysis. The data set is classed as functional.
The test system of data set [14] is Candida albicans. Description: Reduction in Candida albicans SC5314 adhesion to epithelium expressing wild-type SAP9/10 at 20 uM. The data set is classed as functional, organism-based.
The test system of data set [15] is Candida albicans. As to the kind of experiment: Reduction in Candida albicans SC5314 adhesion to epithelium expressing wild-type SAP9/10 at 5 uM. It counts as functional, organism-based.
Data set [16] deals with Candida albicans. Description: Reduction in Candida albicans adhesion to epithelium expressing SAP9/10 mutant relative to control. It counts as functional. Also noted: scale not given: the % may be the effect or the level left.
Data set [17] deals with Candida albicans. As to the kind of experiment: Induction of necrosis in Candida albicans by flow cytometry analysis. The data set is classed as functional. (Flow cytometry measures light scatter and fluorescence of single cells or particles in a stream.)
The subject of data set [18] is Candida albicans. Description: Induction of cell membrane permeabilization in Candida albicans by flow cytometry analysis. The data set is classed as functional, organism-based.
Data set [19] concerns Candida albicans. As to the kind of experiment: Induction of apoptosis in Candida albicans at sub-MIC. It counts as functional, organism-based.
Data set [20] deals with Candida albicans. Description: Induction of apoptosis in Candida albicans harboring cnb1delta mutant at 20 uM. The data set is classed as functional, organism-based.
Data set [21] concerns Candida albicans. Description: Induction of apoptosis in wild type Candida albicans SC5314 at 20 uM. The data set is classed as functional.
Data set [22] relates to Candida albicans. As to the kind of experiment: Inhibition of calcineurin catalytic activity in Candida albicans at 5 uM.
Data set [23] has as its system Candida albicans. As to the kind of experiment: Antibiofilm activity against Candida albicans at 5 to 20 uM. It counts as functional, organism-based. Conditions: dose microM 5-20.

Calls of active or inactive are those of the source. The calls are words filed in the database; no cut-off is given here.

By IC50 is commonly meant the concentration that gives 50% inhibition.

With `C=CC[C@@H]1/C=C(\C)C[C@H](C)C[C@H](OC)[C@H]2O[C@@](O)(C(=O)C(=O)N3CCCC[C@H]3C(=O)O[C@H](/C(C)=C/[C@@H]3CC[C@@H](O)[C@H](OC)C3)[C@H](C)[C@@H](O)CC1=O)[C@H](C)C[C@@H]2OC` [TACROLIMUS ANHYDROUS], the results for the IC50 in [1] and in [2] were 2 nM and 0.4 nM, respectively.
As for `CC(Cn1cnc2c1c(=O)n(C)c(=O)n2C)OCc1cn(CCCn2nc3c(Br)c(Br)c(Br)c(Br)c3n2)nn1` (stereo not drawn), the fold change (FC) with Vero [3] is -4.52; in the data set with Vero [4], -2.38; in the data set on Vero [5], 0.24; in the data set on Vero [6], -2.98. The outcome with Candida albicans [7], with Candida albicans [9], with Candida albicans [13], with Candida albicans [14], in the data set with Candida albicans [19] and in the data set on Candida albicans [20] was Active. Moreover, the result with Candida albicans [21] and with Candida albicans [23] was Active. In addition, the Activity entry was “Non-Toxic” in data set [8]; “Non-Toxic” in data set [10]; “Non-Toxic” in data set [11]; “Toxic” in data set [12]; 100% with Candida albicans [16]; “Dose-dependent effect” with Candida albicans [17]. In the data set on Candida albicans [18], the Activity result is “Dose-dependent effect”. For the same compound, the result in the data set with Candida albicans [15] was inactive. For the same compound, the inhibition result in the data set on Candida albicans [22] is “Active”.

Source of the values: ChEMBL document CHEMBL4665813, “Antifungal polybrominated proxyphylline derivative induces Candida albicans calcineurin stress response in Galleria mellonella” (Bioorg Med Chem Lett, 2020).
